Laboratory results reported in patent US12655116B2, “Substituted isophthalic acid diamides” (Bayer Aktiengesellschaft, priority 2020, dated 2026).

How the values were obtained:
SETVI [1] = experiment: Post-emergence herbicidal action against SETVI; assay type: in vivo, Setaria viridis; conditions: dosage 20 g/ha
In short: (§1)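 Percent herbicidal action is rated by eye about 3 weeks after treatment against untreated controls, where 100% means dead plants and 0% means like controls. Plants in sandy loam are sprayed on green parts at the one-leaf stage with aqueous WP or EC preparations at 600 to 800 l/ha plus 0.2% wetting agent.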

PHBPU [2] = experiment: Pre-emergence herbicidal action against PHBPU; assay type: in vivo, Pharbitis purpurea
In short: (§2)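 Seeds sown in sandy loam, soil-covered; compound sprayed on soil surface pre-emergence. Application: WP/EC, 600–800 l/ha, 0.2% wetting agent. Readout: visual % damage at 3 weeks.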

POLCO = experiment: Pre-emergence herbicidal action against POLCO; assay type: in vivo, Polygonum convolvulus; conditions: dosage 80 g/ha
In short: as §2

ECHCG [3] = experiment: Post-emergence herbicidal action against ECHCG; assay type: in vivo, Echinochloa crus-galli
In short: as §1

AMARE [4] = experiment: Pre-emergence herbicidal action against AMARE; assay type: in vivo, Amaranthus retroflexus
In short: as §2

ABUTH [5] = experiment: Pre-emergence herbicidal action against ABUTH; assay type: in vivo, Abutilon theophrasti; conditions: for Pre-emergence action against ABUTH (herbicidal activity): 80 g/ha, scored visually after 3 weeks vs untreated controls (100% = plants have died, 0% = like control plants); for Pre-emergence action against ABUTH (herbicidal activity in percent): dosage 20 g/ha, scored visually after 3 weeks vs untreated controls, 100% = plants have died, 0% = like control plants
In short: as §2

VIOTR [6] = experiment: Pre-emergence herbicidal action against VIOTR; assay type: in vivo, Viola tricolor
In short: as §2

MATIN [7] = experiment: Pre-emergence herbicidal action against MATIN; assay type: in vivo, Matricaria inodora
In short: as §2

ABUTH [8] = experiment: Post-emergence herbicidal action against ABUTH; assay type: in vivo, Abutilon theophrasti; conditions: dosage 20 g/ha, visual assessment about 3 weeks after treatment vs untreated controls
In short: as §1

LOLRI = experiment: Pre-emergence herbicidal action against LOLRI; assay type: in vivo, Lolium rigidum; conditions: 80 g/ha
In short: as §2

MATIN [9] = experiment: Post-emergence herbicidal action against MATIN; assay type: in vivo, Matricaria inodora
In short: as §1

VIOTR [10] = experiment: Post-emergence herbicidal action against VIOTR; assay type: in vivo, Viola tricolor; conditions: 20 g/ha
In short: as §1

ECHCG [11] = experiment: Pre-emergence herbicidal action against ECHCG; assay type: in vivo, Echinochloa crus-galli; conditions: 80 g/ha
In short: as §2

AMARE [12] = experiment: Post-emergence herbicidal action against AMARE; assay type: in vivo, Amaranthus retroflexus; conditions: 20 g/ha, visual assessment about 3 weeks after treatment, 100% = plants have died, 0% = like control plants
In short: as §1

AVEFA = experiment: Pre-emergence herbicidal action against AVEFA; assay type: in vivo, Avena fatua; conditions: 80 g/ha, pre-emergence
In short: as §2

SETVI [13] = experiment: Pre-emergence herbicidal action against SETVI; assay type: in vivo, Setaria viridis; conditions: dosage 80 g/ha
In short: as §2

DIGSA [14] = experiment: Pre-emergence herbicidal action against DIGSA; assay type: in vivo, Digitaria sanguinalis
In short: as §2

DIGSA [15] = experiment: Post-emergence herbicidal action against DIGSA; assay type: in vivo, Digitaria sanguinalis; conditions: 20 g/ha
In short: as §1

ALOMY [16] = experiment: Pre-emergence herbicidal action against ALOMY; assay type: in vivo, Alopecurus myosuroides; conditions: 80 g/ha, pre-emergence, scored visually after 3 weeks vs untreated controls (100% = plants have died, 0% = like control plants)
In short: as §2

ALOMY [17] = experiment: Post-emergence herbicidal action against ALOMY; assay type: in vivo, Alopecurus myosuroides; conditions: dosage 20 g/ha, visual assessment about 3 weeks after treatment vs untreated controls
In short: as §1

PHBPU [18] = experiment: Post-emergence herbicidal action against PHBPU; assay type: in vivo, Pharbitis purpurea
In short: as §1

VERPE = experiment: Pre-emergence herbicidal action against VERPE; assay type: in vivo, Veronica persica; conditions: dosage 80 g/ha
In short: as §2

[19] = 20 g/ha, scored visually after 3 weeks vs untreated controls, 100% = plants have died, 0% = like control plants
[20] = 80 g/ha, scored visually after 3 weeks vs untreated controls (100% = plants have died, 0% = like control plants)

| SMILES | Post-emergence action against SETVI in % (SETVI [1]) [%] | Pre-emergence action against PHBPU in % (PHBPU [2]; dosage 80 g/ha) [%] | Pre-emergence action against POLCO in % (POLCO) [%] | Post-emergence action against ECHCG in % (ECHCG [3]; dosage 20 g/ha) [%] | Pre-emergence action against AMARE in % (AMARE [4]; [19]) [%] | Pre-emergence action against AMARE in % (AMARE [4]; [20]) [%] | Pre-emergence action against ABUTH (herbicidal activity) (ABUTH [5]) [%] | Pre-emergence action against ABUTH (herbicidal activity in percent) (ABUTH [5]) [%] | Pre-emergence action against VIOTR in % (VIOTR [6]; dosage 20 g/ha) [%] | Pre-emergence action against VIOTR in % (VIOTR [6]; dosage 80 g/ha) [%] | Pre-emergence action against MATIN in % (MATIN [7]; dosage 20 g/ha) [%] | Pre-emergence action against MATIN in % (MATIN [7]; dosage 80 g/ha) [%] | Pre-emergence action against LOLRI in % (LOLRI) [%] | Pre-emergence action against ECHCG in % (ECHCG [11]) [%] | Post-emergence action at 20 g/ha against AMARE in % (AMARE [12]) [%] | Pre-emergence action against AVEFA in % (AVEFA) [%] | Pre-emergence action against SETVI in % (SETVI [13]) [%] | Pre-emergence action against DIGSA in % (DIGSA [14]; dosage 20 g/ha) [%] | Pre-emergence action against DIGSA in % (DIGSA [14]; dosage 80 g/ha) [%] | Pre-emergence action against ALOMY (herbicidal activity) (ALOMY [16]) [%] | also measured |
| --- | --- | --- | --- | --- | --- | --- | --- | --- | --- | --- | --- | --- | --- | --- | --- | --- | --- | --- | --- | --- | --- |
| CCn1nnnc1NC(=O)c1ccc(C(F)(F)F)c(C(=O)NCC2CC2)c1Cl [Example 2-132] | 80 | 90 | 80 | 90 | 100 | 100 | 100 | 100 | 100 | 100 | 100 | 100 | 90 | 100 | 90 | 90 | 100 | 80 | 100 | 90 | Post-emergence action against ABUTH in % (ABUTH [8]): 80%; Post-emergence action against MATIN in % (MATIN [9]; dosage 5 g/ha): 80%; Post-emergence action against MATIN in % (MATIN [9]; dosage 20 g/ha): 80%; Post-emergence action against VIOTR in % (VIOTR [10]): 90%; Post-emergence action against DIGSA (DIGSA [15]): 80% |
| CCn1nnnc1NC(=O)c1ccc(C(F)(F)F)c(C(=O)NCC(F)F)c1Br [Example 2-212] | – | 80 | 80 | 80 | – | 100 | 100 | – | – | 100 | – | 100 | 90 | 90 | – | 90 | 100 | – | 100 | 100 | Post-emergence action against DIGSA (DIGSA [15]): 100% |
| COCCNC(=O)c1c(C(F)(F)F)ccc(C(=O)Nc2nnnn2C)c1Cl [Example 1-138] | 80 | 90 | 90 | 90 | 100 | 100 | 100 | 100 | 100 | 100 | 90 | 100 | 90 | 100 | 90 | – | 100 | 100 | 100 | 90 | Pre-emergence action against PHBPU in % (PHBPU [2]; dosage 20 g/ha): 80%; Post-emergence action against ECHCG in % (ECHCG [3]; dosage 5 g/ha): 80%; Post-emergence action against ALOMY in % (ALOMY [17]): 90%; Post-emergence action against PHBPU in % (PHBPU [18]; dosage 5 g/ha): 80%; Post-emergence action against PHBPU in % (PHBPU [18]; dosage 20 g/ha): 90%; Pre-emergence action against VERPE in % (VERPE): 90% |
